Results: patent publication US12571801B2, “Tandem activity-based sensing and labeling strategy for reactive oxygen species imaging” (The Regents of the University of California, priority 2021, dated 2026)

How the values were obtained:
zebrafish = assay: In vivo live imaging of endogenous H2O2 in zebrafish, tail fin cut model
Protocol: FIG. 6. Confocal microscopic images of zebrafish labeled with PR1-FM. Zebrafish embryos in E3 medium containing P1-FM (5 μM) were incubated overnight. The fishes were additionally incubated for 1 hour with containing DPI (100 nM) before the tail fin cut.
We sought to apply PR1-FM for in vivo live imaging to detect endogenous hydrogen peroxide production. PR1-FM was tested with live zebrafish in the regenerated fin model. The larvae at two days post-fertilization (dpf) was pre-stained with PR1-FM (5 μM) overnight before tail fin cut. […] Taken together, PR1-FM can be useful for detecting hydrogen peroxide in live zebrafish.

A431 cells = assay: Imaging of endogenous H2O2 in EGF-stimulated A431 cells; format: cell-based
Protocol: (A) Confocal microscopy (top row) and overlaid brightfield (bottom row) images of A431 cells stained with PG1-FM (10 μM) and then treated with EGF (1 μg/mL) or vehicle control for 30 min, washed and imaged, or first pre-treated with NADPH oxidase inhibitor DPI (5 μM) or antioxidant ebselen (5 μM) for 30 min in HBSS solution before PG1-FM staining and EGF stimulation. (B) Quantification of experiments.

RAW 264.7 macrophages = assay: Imaging and flow cytometry of endogenous H2O2 in PMA-stimulated RAW264.7 macrophages; format: cell-based, mouse; conditions: for probe fluorescence in PMA-treated RAW 264.7 cells vs control: probe 10 μM, PMA 1 μg/mL 60 min, confocal microscopy and flow cytometry
Protocol: (A) Confocal microscopy (top row) and overlaid brightfield (bottom row) images of RAW264.7 macrophages stained with PG1-FM (10 μM) and then treated with PMA (1 μg/mL) or vehicle control for 60 min, washed and imaged, or first pre-treated with NADPH oxidase inhibitor DPI (5 μM) or antioxidant ebselen (5 μM) for 30 min in HBSS solution before PG1-FM staining and PMA stimulation. (B) Flow cytometry histograms and (C) quantification of mean value fluorescence intensity using PG1-FM under same conditions as (A). (D) Confocal microscopic images of RAW264.7 macrophages stained with PR1-FM (10 μM) under same conditions as (A). **P<0.01.
We next tested the ability of PG1-FM and PR1-FM to monitor H2O2 production in RAW 264.7 macrophages.
RAW264.7 cells were plated on a μ-slide 8 well (ibidi) and cultured at 37° C. overnight in a 5% CO2 incubator. The cells were pretreated with inhibitors, DPI (5 μM) or Ebselen (10 μM), for 30 min in HBSS. Afterward, the cells were co-incubated with PG1-FM (10 μM) and PMA (1 μg/mL) with or without DPI or Ebselen. The cells were observed on confocal microscope after washing with HBSS twice.
RAW264.7 cells were plated on a 6 well plate and cultured at 37° C. overnight in a 5% CO2 incubator. The cells were pretreated with inhibitors, DPI (5 μM) or Ebselen (10 μM), for 30 min in HBSS. Afterward, the cells were co-incubated with PG1-FM (5 μM) and PMA (1 μg/mL) with or without DPI or Ebselen. The cells were harvested by 0.05% Trypsin with EDTA, filtered, and analyzed with flow cytometer.

[1] = biological target: bovine serum albumin (BSA) (Bos taurus, UniProt P02769); assay: H2O2-dependent activity-based labeling of BSA, SDS-PAGE; format: biochemical; conditions: BSA 0.5 mg/mL, with or without H2O2 (100 μM)
Chain of bovine serum albumin (BSA) (P02769 25-607): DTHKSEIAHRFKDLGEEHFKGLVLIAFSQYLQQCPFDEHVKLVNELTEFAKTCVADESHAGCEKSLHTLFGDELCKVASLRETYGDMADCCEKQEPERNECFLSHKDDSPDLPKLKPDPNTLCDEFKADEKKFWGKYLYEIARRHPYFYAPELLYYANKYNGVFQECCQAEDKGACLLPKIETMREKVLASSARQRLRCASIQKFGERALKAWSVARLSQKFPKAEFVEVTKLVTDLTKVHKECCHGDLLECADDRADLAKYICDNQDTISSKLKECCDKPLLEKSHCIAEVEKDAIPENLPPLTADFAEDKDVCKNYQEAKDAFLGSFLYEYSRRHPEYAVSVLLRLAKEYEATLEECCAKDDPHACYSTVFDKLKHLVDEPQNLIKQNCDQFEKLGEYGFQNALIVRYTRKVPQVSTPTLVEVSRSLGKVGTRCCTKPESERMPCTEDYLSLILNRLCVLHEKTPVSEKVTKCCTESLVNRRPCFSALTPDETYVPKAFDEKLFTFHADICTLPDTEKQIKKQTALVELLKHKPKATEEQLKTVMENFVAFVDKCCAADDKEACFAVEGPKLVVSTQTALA
Protocol: (§1) FIGS. 1A-I. Fluorescence responses and activity-based sensing and labeling properties of PG1-FM, MitoPY1-FM, and PR1-FM. (A, B, C) Activity-based sensing fluorescence responses of 1 μM PG1-FM (A), 1 μM MitoPY1-FM (B), and 1 μM PR1-FM (C) to 25 μM H2O2. Data were acquired in PBS (pH 7.4) at 37° C. (D, E, F) Fluorescence responses of 1 μM PG1-FM (D), 1 μM MitoPY1-FM (E), and 1 μM PR1-FM (F) towards biologically relevant competing reactive oxygen species and reactive nitrogen species. (G, H, I) H2O2-dependent activity-based labeling of PG1-FM (G), MitoPY1-FM (H), and PR1-FM (I) to BSA. A solution of BSA (0.5 mg/mL) and PG1-FM (1 μM), MitoPY1-FM (1 μM), and PR1-FM (1 μM) in PBS (pH 7.4) was incubated with or without H2O2(100 μM) and analyzed by SDS-PAGE gel.
(§2) We first evaluated the in vitro response of PG1-FM, MitoPY1-FM, and PR1-FM to hydrogen peroxide in aqueous solution buffered to physiological pH. […] PG1-FM converted to a fluorescent product that undergoes subsequent hydrolysis with H2O by LC analysis (FIG. 9A-B). […] To establish activity-based labeling of PG1-FM, MitoPY1-FM, and PR1-FM in a H2O2-dependent manner, we incubated the probes with bovine serum albumin (BSA) as a model protein substrate in the presence or absence of H2O2, and the reactions were analyzed by SDS-PAGE.
PG1-FM (10 μM) and BSA (0.5 mg/mL) were incubated at 25° C. for 1 h with or without H2O2 (100 μM). Afterward, Ebselen (100 μM) was added to the mixture to quench excess of H2O2. The obtained samples were separated with Novex™ Mini Gel (Thermo). The gel was first analyzed by ChemiDoc™ MP (Bio-Rad) to take a fluorescence images, and stained with Coomassie brilliant blue (CBB) Solution

[2] = ROS selectivity analysis (fluorescence response to competing ROS/RNS); conditions: 1 μM probe; OCl−, TBHP, O2−, ONOO−, NO; PBS
Protocol: as §1
FIG. 8. Fluorescence spectra of PG1-FM reacted with […] of OCl^−, TBHP, O2^−, ONOO^−, NO or PBS (control). PG1-FM (1 μM) was incubated with […] of H2O2, OCl^−, TBHP, O2^−, ONOO^−, or NO at 37° C. in PBS (−). The mixtures were measured by fluorometer at any incubating times (0, 5, 15, 30, 45, and 60 min).
(§3) PG1-FM was dissolved in DMSO to obtain a 1 mM stock solution. The fluorescence spectra of PG1-FM (1 μM) were measured in PBS (−) containing 25 μM of H2O2, OCl^−, TBHP, O2^−, ONOO^−, or NO OCl^−, O2^−, ONOO^−, or NO were generated by using NaOCl (Fluka), potassium superoxide (SIGMA), Peroxynitrite (Cayman), and PROLI NONOate (Cayman), respectively. The fluorescence spectra of PG1-FM were collected an emission window between 500 nm to 650 nm with excitation at 488 nm.

HeLa cells [3] = assay: Confocal imaging of exogenous H2O2 in live HeLa cells; format: cell-based; conditions: 5 μM probe; for probe fluorescence in HeLa cells on exogenous H2O2 treatment: H2O2 (1 mM) 60 min vs vehicle, confocal
Protocol: FIGS. 2A-C. Exogenous H2O2 detection. Confocal microscopic images of HeLa cell stained with PG1-FM, PR1-FM, and MitoPY1-FM. (A, B) HeLa cells were pe-stained with PG1-FM (5 μM) or PR1-FM (5 μM) at 37° C. in a 5% CO2 incubator. After incubating for 30 min, the cells were washed with HBSS twice, and treated with H2O2 (1 mM) for 60 min. The cells were observed on confocal microscope after washing with HBSS twice. (C) HeLa cells were pe-stained with MitoPY1-FM (5 μM) at 37° C. in a 5% CO2 incubator. After incubating for 30 min, the cells were washed with HBSS twice, and treated with H2O2 (1 mM) for 60 min. The cells were observed on confocal microscope after staining with MitoBright LT Green for 30 mi. Scale bar: 50 μm.
We next assessed the ability of PG1-FM, MitoPY1-FM, and PR1-FM for visualizing changes in H2O2 levels in live cells with exogenous H2O2 treatment. HeLa cells were pre-stained with 5 μM of PG1-FM, MitoPY1-FM, or PR1-FM, treated with H2O2 (1 mM) or vehicle control, washed, and imaged. MitoPY1-FM stained HeLa cells were co-stained with MitoBright LT Green before imaging. […] We observed that the probes load evenly throughout the cell and responds to elevations in H2O2(FIGS. 2A, 2B, and 2C).
Cells were grown at the UC Berkeley Tissue Culture Facility. HeLa, RAW264.7, and A431 cells were cultured in DMEM (high glucose) supplemented with 10% (v/v) fetal bovine serum, GlutaMAX, and NEAA. All cells were maintained in a humidified 5% CO2 incubator at 37° C.

[4] = Fluorescence response of probes to H2O2 in buffer; conditions: 1 μM probe, 25 μM H2O2, PBS (pH 7.4), 37° C.
Protocol: as §1, §2, §3

HeLa cells [5] = assay: Imaging and flow cytometry of endogenous H2O2 in paraquat-treated HeLa cells; format: cell-based; conditions: paraquat 1 mg/mL 24 h; confocal microscopy, verified by flow cytometry
Protocol: FIGS. 3A-C. PG1-FM imaging of endogenous H2O2 generation in live HeLa cells under oxidative stress conditions stimulated by paraquat. (A) Confocal microscopy images of HeLa cells treated with or without paraquat (1 mg/mL) for 24 h, stained with PG1-FM (10 μM) for 1 h, washed twice with HBSS, and imaged. Scale bar: 50 μm. (B) Flow cytometry analysis of the cells treated with or without paraquat using PG1-FM using same conditions as (A). (C) Flow cytometric data quantified with mean value. **P<0.01.
We next utilized PG1-FM for imaging endogenous H2O2 fluxes produced by multiple types of cell models under various stimulation conditions. Our first set of experiments along these lines evaluated the performance of the probe under conditions of oxidative stress induced by paraquat treatment. HeLa cells were stimulated with or without paraquat (1 mg/mL) for 24 h to induce ROS and oxidative stress, followed by staining with PG1-FM for 30 min, washing, and imaging. […] Because the probe is cell-trappable, we verified the observed fluorescence enhancements using flow cytometry (FIG. 3B, 3C), highlighting its utility in this analytical method as well.

HeLa cells [6] = assay: Imaging of mitochondrial H2O2 in HeLa cells treated with Antimycin or Rotenone; format: cell-based
Protocol: FIGS. 7A-B. Confocal microscopic images of HeLa cell stained with MitoPY1-FM. (A) HeLa cell was stained with MitoPY1-FM (5 μM) for 1 h. After washing the cell with non-FBS medium, the cell was treated with Antimycin (1 μM) or Rotenone (1 μM) for 24 h. The cells were observed on confocal microscope after washing the cell. (B) Confocal microscopic images of fixed HeLa cell stained with MitoPY1-FM and Tom 20 antibody. HeLa cells were stained with MitoPY1-FM and then exposed with antimycin A. The treated cells were fixed and stained with Tom 20 antibody before the observation.
We evaluated MitoPY1-FM for imaging mitochondrial H2O2 fluxes produced by inhibition of mitochondrial electron transporter chain. HeLa cells were pre-stained with MitoPY1-FM (5 μM) and stimulated by Antimycin (1 μM) or Rotenone (1 μM) for 24 h to induce ROS and oxidative stress.

Compound | effect of inhibitor on PR1-FM fluorescence in zebrafish after tail fin cut (zebrafish; DPI 100 nM, 1 hour before the tail fin cut) | effect of inhibitor on H2O2-induced PG1-FM fluorescence in EGF-stimulated A431 cells (A431 cells; inhibitor 5 μM pre-treatment 30 min) | effect of inhibitor on PMA-induced probe fluorescence increase in RAW 264.7 cells (RAW 264.7 macrophages; inhibitor pre-treatment 30 min in HBSS) | H2O2-dependent fluorescent labeling of BSA [1] | probe fluorescence in zebrafish post-cut vs pre-cut of tail fin (zebrafish; larvae 2 dpf, PR1-FM 5 μM overnight) | probe fluorescence in PMA-treated RAW 264.7 cells vs control (RAW 264.7 macrophages) | selectivity of fluorescence response for H2O2 over other ROS and RNS [2] | probe fluorescence in HeLa cells on exogenous H2O2 treatment (HeLa cells [3]) | fluorescence response after treatment with H2O2 [4] | probe fluorescence in EGF-stimulated A431 cells vs control (A431 cells; PG1-FM 10 μM, EGF 1 μg/mL 30 min, confocal) | probe fluorescence in paraquat-exposed vs untreated HeLa cells (HeLa cells [5]) | probe fluorescence in mitochondria of HeLa cells exposed to electron transport chain inhibitors vs untreated (HeLa cells [6]; MitoPY1-FM 5 μM, Antimycin (1 μM) or Rotenone (1 μM) 24 h) | localisation of probe fluorescence in fixed HeLa cells co-stained with Tom20 antibody (HeLa cells [6]; antimycin A exposed, fixed cells) | localisation by co-staining with MitoBright LT Green (HeLa cells [3]; HeLa cells, H2O2 (1 mM))
c1ccc2c(c1)[I+]c1ccccc1-2 [DPI, diphenyleneiodonium, reference compound] | lower level of fluorescence | inhibited H2O2-induced enhancements in PG1-FM fluorescence | fluorescence increases are blocked |  |  |  |  |  |  |  |  |  |  | 
CN(C)c1ccc2c(c1)[Si](C)(C)c1c(ccc(B3OC(C)(C)C(C)(C)O3)c1CF)C21OC(=O)c2ccccc21 (stereo not shown) [PR1-FM, Peroxy Red-1 Fluoromethyl] |  |  |  | fluorescent BSA-associated band was observed only under conditions with H2O2 | patently higher fluorescence signals in post-cut condition | higher PG1-FM and PR1-FM fluorescence relative to control cells | highly selective response for H2O2 | fluorescence increase in the whole cells | clear fluorescence enhancement |  |  |  |  | 
COc1ccc2c(c1)Oc1c(ccc(B3OC(C)(C)C(C)(C)O3)c1CF)C21OC(=O)c2ccccc21 (stereo not shown) [PG1-FM, Peroxy Green-1 Fluoromethyl] |  |  |  | fluorescent BSA-associated band was observed only under conditions with H2O2 |  | higher PG1-FM and PR1-FM fluorescence relative to control cells | highly selective response for H2O2 | fluorescence increase in the whole cells | clear fluorescence enhancement | clear increase in fluorescence | patent H2O2-dependent fluorescence increases |  |  | 
CC1(C)OB(c2ccc3c(c2CF)Oc2cc(N4CCN(C(=O)CCC[P+](c5ccccc5)(c5ccccc5)c5ccccc5)CC4)ccc2C32OC(=O)c3ccccc32)OC1(C)C.[Br-] (stereo not shown) [MitoPY1-FM, MitoPY1 Fluoromethyl] |  |  |  | fluorescent BSA-associated band was observed only under conditions with H2O2 |  |  | highly selective response for H2O2 |  | clear fluorescence enhancement |  |  | patent H2O2-dependent fluorescence increases | enhanced on mitochondria | overlapped with MitoBright LT
